BindingDB's records for doi:10.7270/Q2PG1Q5Z (Broad Institute, 2010)

These compounds were tested against T1, Alkanal monooxygenase alpha chain (Vibrio harveyi, UniProt P07740) (assay: inhibition of V. harveyi AI-2 signalling – luminescence, dose retest, Vibrio harveyi, confirmation (AID 2735)).
T1 sequence (P07740 whole entry): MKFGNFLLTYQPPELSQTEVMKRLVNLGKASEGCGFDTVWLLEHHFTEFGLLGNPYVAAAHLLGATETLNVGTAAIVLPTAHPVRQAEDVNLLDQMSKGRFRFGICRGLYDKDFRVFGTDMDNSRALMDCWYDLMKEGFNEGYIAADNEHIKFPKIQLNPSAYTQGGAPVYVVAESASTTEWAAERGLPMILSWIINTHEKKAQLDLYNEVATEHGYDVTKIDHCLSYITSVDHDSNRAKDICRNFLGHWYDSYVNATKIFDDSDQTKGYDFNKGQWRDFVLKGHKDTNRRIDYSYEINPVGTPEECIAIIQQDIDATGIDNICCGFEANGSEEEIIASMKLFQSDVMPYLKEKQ

Point of comparison: COc1cc(NC(=O)CN2C(=O)NC(c3ccccc3)(c3ccccc3)C2=O)cc(OC)c1 [MLS001176525], EC50 10 µM. Against it:
- C=Cn1c(C(=O)O)ccc1-c1ccc(CC)cc1 — 2.6-fold higher, 25.8 µM
- CCc1ccc(S(=O)(=O)Nc2ccc(Br)cn2)cc1 [MLS001211346] — 1.8-fold higher, 18.1 µM
- CCCc1ccc(S(=O)(=O)N(C)S(=O)(=O)c2ccc(F)cc2)cc1 [N-(4-fluorophenyl)sulfonyl-N-methyl-4-propylbenzenesulfonamide] — within 1.5-fold, 8.81 µM
- CN(C)S(=O)(=O)c1ccc(NC(=S)NC(=O)Cc2ccccc2)cc1 [N-[[4-(dimethylsulfamoyl)phenyl]carbamothioyl]-2-phenyl-ethanamide] — higher, > 160 µM
- Cc1cccc(NS(=O)(=O)c2ccc(Oc3ccccc3)cc2)n1 [SMR000071466] — within 1.5-fold, 12.5 µM
- Cn1cnc(S(=O)(=O)Nc2ccc(OC(F)(F)F)cc2)c1 [SMR000314513] — 2.5-fold higher, 24.5 µM
